This assay addresses T1, glucagon receptor (Homo sapiens, UniProt P47871).
T1 construct: expressed in transfected cells; host or cells: Chinese Hamster Ovary cells (CHO-HGR), membranes
Put plainly: glucagon receptor binding assay (125I-glucagon, CHO-HGR membranes). Particulars: for inhibition at 20 µM: reported where 20 μM did not reduce glucagon binding by 50%; for pIC50: 60 min at room temperature. As for the experimental part:
The affinity for the glucagon receptor of compounds of the present invention is determined by the glucagon receptor binding assay. Membranes were prepared from Chinese Hamster Ovary cells expressing the glucagon receptor (CHO-HGR) by scraping the cells into hypotonic lysis buffer (10 mM Tris, pH 7.4, 2 mM EDTA, 5 mM MgCl2 and 1 mM PMSF) and subjecting the material to Polytron homogenization. Nuclei were removed by a 15-min 800×g centrifugation step conducted at 4° C. Membranes containing the receptor were collected by centrifugation at 15,000×gfor 15 min at 4° C. The membranes were washed once in lysis buffer and suspended in 0.25 M sucrose, 10 mM Tris, 5 mM EDTA, pH 7.4. The membranes were used in ligand binding studies as reported (Yoo-Warren, H., Willse, A. G., Hancock, N., Hull, J., McCaleb, M., and Livingston, J. Regulation of Rat Glucagon Receptor Expression. Biochem. Biophysical Res. Commun. 1994, 205, 347-353). In brief, 10 ug of membrane protein was incubated in 130 μl of binding buffer that consisted of 20 mM Tris, […], 1 mM EDTA, 1 mg/ml BSA, and 1 mg/ml bacitracin. The membrane suspension was placed in each well of a 96-well filtration plate (glass fiber type C, Millipore). […] Following the addition of test compound, 50 μl of ^125 I-glucagon (9 fmol) (NEN) was added to each well. Control wells contained membranes, 0.5% DMSO (solvent for test compounds), radiolabeled glucagon without and with excess native glucagon (1 μM) to establish nonspecific binding. The plates were incubated for 60 min at room temperature, and then filtered on a Mllipore vacuum apparatus. Following a wash step with ice-cold PBS/0.1% BSA, the filters were punched into test tubes, and the membrane bound radioactivity was determined.

pIC50: −log10 of the molar value. Read-outs that look alike come from different tables or passages of the source.

T1 sequence (P47871 26-477): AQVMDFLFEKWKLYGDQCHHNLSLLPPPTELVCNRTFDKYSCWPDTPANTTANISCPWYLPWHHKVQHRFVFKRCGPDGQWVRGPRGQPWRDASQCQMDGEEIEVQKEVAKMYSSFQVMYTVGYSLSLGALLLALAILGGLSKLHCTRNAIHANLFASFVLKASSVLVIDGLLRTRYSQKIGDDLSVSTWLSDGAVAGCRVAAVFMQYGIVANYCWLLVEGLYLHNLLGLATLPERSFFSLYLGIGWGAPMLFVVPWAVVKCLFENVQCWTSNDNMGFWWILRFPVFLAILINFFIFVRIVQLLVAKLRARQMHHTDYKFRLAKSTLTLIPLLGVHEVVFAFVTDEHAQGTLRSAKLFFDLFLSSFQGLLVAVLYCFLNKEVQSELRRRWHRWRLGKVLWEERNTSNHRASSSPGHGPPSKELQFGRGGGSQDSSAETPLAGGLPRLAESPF

As for `CCC(OC)c1c(C(C)C)nc(C(C)C)c(CO)c1-c1ccc(F)cc1` (racemic) [Example 99, (±)-2,6-Diisopropyl-3-hydroxymethyl-4-(4-fluorophenyl)-5-(1-methoxy-5-propyl)pyridine], 20 µM produced 43.2% inhibition. As to `CC(C)c1nc(C(C)C)c(CSCc2ccccc2)c(-c2ccc(F)cc2)c1CO` [Example 64], the pIC50 (125I-glucagon, read-out: IC50) was 5.96. Turning to `CC(C)CC=Cc1c(C(C)C)nc(C(C)C)c(CO)c1-c1ccc(F)cc1` [Example 28, 2,6Diisopropyl-3-hydroxymethyl-4-(4-fluorophenyl)-5-(4-methyl-1-pentenyl)pyridine], the pIC50 (125I-glucagon, read-out: IC50) was 6.00. Regarding `CCCc1c(C(C)C)nc(C(C)C)c(CO)c1-c1ccc(F)cc1O` (single isomer, unassigned) [Example 239-E1, 2,6-Diisopropyl-3-(1-hydroxymethyl)-4-(4-fluoro-2-hydroxyphenyl)-5-propylpyridine], the negative logarithm of the IC50 (pIC50) (125I-glucagon, read-out: IC50) was 5.60. `CCCCCc1c(C(C)C)nc(C(C)C)c(C(O)CC)c1-c1ccc(F)cc1` (racemic) [Example 117] showed an inhibition at 20 µM of 45.1%. Molecule `CCCCCc1c(C(C)C)nc(C(C)C)c(CN(C)C)c1-c1ccc(F)cc1` [Example 122, 2,6-Diisopropyl-3-(dimethylamino)methyl-4-(4-fluorophenyl)-5-pentyl-pyridine] displayed an inhibition at 20 µM of 7.54%.

Regarding `CC(C)c1nc(C(C)C)c(CSc2ccc([N+](=O)[O-])cc2)c(-c2ccc(F)cc2)c1CO` [Example 68, 2,6-Diisopropyl-3-hydroxymethyl-4-(4-fluorophenyl)-5-[(4-nitrophenyl)-thio]methylpyridine], for the setting “125I-glucagon, read-out: IC50”, the pIC50 was 4.89. On the same count and under the same terms, for `CC(C)c1nc(C(C)C)c(CCCc2ccccc2)c(-c2ccc(F)cc2)c1CO` [Example 83] the value was 6.19. `CCCCCc1c(C(C)C)nc(C(C)C)c(CO)c1-c1ccc(C(C)C)cc1` [Example 134, 2,6-Diisopropyl-3-hydroxymethyl-4-(4-isopropylphenyl)-5-pentylpyridine] registered an inhibition at 20 µM of 34.4%.

Regarding `Cc1c(C(C)C)nc(C(C)C)c(CO)c1-c1ccc(F)cc1` [Example 81], the pIC50 (125I-glucagon, read-out: IC50) is 5.12. Turning to `CCCCCc1c(C)nc(C)c(CO)c1-c1ccccc1` [Example 4], the inhibition at 20 µM worked out at 1.98%.

On to `Cc1ccccc1CCc1c(C(C)C)nc(C(C)C)c(CO)c1-c1ccc(F)cc1` [Example 43, 2,6-Diisopropyl-3-hydroxymethyl-4-(4-fluorophenyl)-5-[2-(2-methyl-phenyl)ethyl]pyridine], for which the pIC50 (125I-glucagon, read-out: IC50) was 5.74.

For the molecule `Cc1cccc(CCCc2c(C(C)C)nc(C(C)C)c(CO)c2-c2ccc(F)cc2)c1` [Example 85, 2,6-Diisopropyl-3-hydroxymethyl-4-(4-fluorophenyl)-5-[3-(3-methyl-5-phenyl)propyl]pyridine], the pIC50 (125I-glucagon, read-out: IC50) is 5.82. For `CC(C)c1nc(C(C)C)c(CCCCCCCN(C)C)c(-c2ccc(F)cc2)c1CO` [Example 90], testing at 20 µM gave an inhibition of 29.1%. In the case of `CCCCCc1c(COCC)nc(C(C)C)c(CO)c1-c1ccc(F)cc1` [Example 202, 2-Ethoxymethyl-3-pentyl-4-(4-fluorophenyl)-5-hydroxymethyl-6-isopropylpyridine], the pIC50 (125I-glucagon, read-out: IC50) is 5.05.

With `CC(C)c1nc(C(C)C)c(CNC2CC2)c(-c2ccc(F)cc2)c1CO` [Example 77, 2,6-Diisopropyl-3-hydroxymethyl-4-(4-fluorophenyl)-5-(cyclopropyl-amino)methylpyridine], the pIC50 (125I-glucagon, read-out: IC50) was 5.22. `CCCCCc1c(C)nc(C(C)C)c(CO)c1-c1ccc(F)cc1` [Example 197, 2-Isopropyl-3-hydroxymethyl-4-(4-fluorophenyl)-5-pentyl-6-methyl-pyridine] gave a negative logarithm of the IC50 (pIC50) (IC50, 125I-glucagon) of 5.15. `CCCCCc1c(C(C)C)nc(C(C)C)c(CO)c1-c1ccccc1OC` [Example 173, 2,6-Diisopropyl-3-hydroxymethyl-4-(2-methoxyphenyl)-5-pentylpyridine]: 20 µM produced 27.4% inhibition.

As usually defined, the inhibition is the relative decrease from the control value, in per cent. The term pIC50 denotes −log10 of the IC50, conventionally taken in molar units.

The record behind these values is patent US6218431A, “Substituted biphenyls” (Bayer Corporation, priority 1997, dated 2001).
